Patent publication US20050209157A1, “Short bioactive peptides and methods for their use” (priority 2001, published 2005)
≈ marks a conversion by molar mass, not a printed value. No end group written: not given here.

Columns and labels:
[1] = system: Escherichia coli ATCC 25922; assay: Antimicrobial assay I, modified protocol (tryptic soy broth), MBC; settings: minimum bactericidal concentration, Table 4
[2] = system: Pseudomonas aeruginosa ATCC 27853; assay: as above; settings: minimum bactericidal concentration, Table 4
[3] = system: Candida albicans ATCC 10231; assay: Antimicrobial assay I, modified protocol (tryptic soy broth), MFC; settings: minimum fungicidal concentration, Table 4
Experimental: (§1) The preparation of all media, stock solutions, and dilutions took place in a laminar flow hood to prevent contamination. Bacterial cells were freshly grown on antibiotic medium 2 agar slants (pH 7.0 at 25° C.). Bacteria were suspended and diluted in antibiotic medium 3 to about 10^4 cfu/ml and used as the inoculum. Sample solutions (100 μl/well) were added to plates according to the plate layout. Inoculum (100 μl/well) was added to achieve a final concentration of 5×10^3 cfu/ml. Negative controls received 100 μl saline and 100 μl growth medium. Positive controls received 100 μl saline and 100 μl inoculum. Bacterial plates were incubated at 37° C. for 24 hours.
(§2) However, the data for Table 4 were obtained with a modified protocol wherein the medium was tryptic soy broth, inocolum strength was approximately 10^4 CFU per ml, and values determined were minimum bactericidal concentrations (MBC) or minimum fungicidal concentrations (MFC).
(§3) MBC or MFC values are in μg/mL. E. coli is Escherichia coli ATCC accession number 25922; P. aerug is Pseudomonas aeruginosa ATCC accession number 27853, S. aur. is Stapholococcus aureus ATCC accession number 25923; Candida is Candida albicans ATCC accession number 10231.

[4] = system: Stapholococcus aureus ATCC 25923; assay: Antimicrobial assay I, modified protocol (tryptic soy broth), MBC; settings: minimum bactericidal concentration, Table 4
Experimental: as §1, §2, §3

Compound | MBC E. coli A.25922 [1] | MBC P. aerug A.27853 [2] | MFC Candida A.10231 [3] | MBC S. aur A.25923 [4]
CC(C)C[C@H](NC(=O)[C@H](CCCCN)NC(=O)[C@H](CCCCN)NC(=O)[C@H](C)NC(=O)[C@H](CC(C)C)NC(=O)[C@H](CCCCN)NC(=O)[C@H](C)NC(=O)[C@H](CC(C)C)NC(=O)[C@H](CCCCN)NC(=O)[C@H](CCCCN)NC(=O)[C@H](C)NC(=O)[C@@H](N)Cc1ccccc1)C(N)=O [compound 106] | 50 µg/mL (≈ 36.8 µM) | >50 µg/mL | >50 µg/mL | 
FAKLWAKLAKKL-NH2 [compound 136] | INACT | INACT | INACT | INACT
CC(C)C[C@H](NC(=O)[C@H](CCCCN)NC(=O)[C@H](C)NC(=O)[C@H](CC(C)C)NC(=O)[C@H](CC(C)C)NC(=O)[C@H](CCCCN)NC(=O)[C@H](C)NC(=O)[C@@H](N)Cc1ccccc1)C(=O)N[C@@H](C)C(=O)N[C@@H](CCCCN)C(=O)N[C@@H](CCCCN)C(N)=O [compound 151] | >250 µg/mL | >250 µg/mL | 100 µg/mL (≈ 81.3 µM) | >250 µg/mL
CC(C)C[C@H](NC(=O)[C@H](C)NC(=O)[C@H](CCCCN)NC(=O)[C@H](C)NC(=O)[C@H](CC(C)C)NC(=O)[C@H](CCCCN)NC(=O)[C@H](C)NC(=O)[C@H](CC(C)C)NC(=O)[C@H](CCCCN)NC(=O)[C@H](C)NC(=O)[C@H](CC(C)C)NC(=O)[C@H](CCCCN)NC(=O)[C@H](CCCCN)NC(=O)[C@H](C)NC(=O)[C@H](CC(C)C)NC(=O)[C@@H](N)CCCCN)C(=O)O [compound 160] | >250 µg/mL | >250 µg/mL | >250 µg/mL | >250 µg/mL
KWKLF-NH2 [compound 131] | INACT | INACT | INACT | INACT
FAKLF-NH2 [compound 129] | INACT | INACT | INACT | INACT
CC[C@H](C)[C@H](NC(=O)CNC(=O)[C@H](CC(C)C)NC(=O)[C@H](CCCCN)NC(=O)[C@H](C)NC(=O)[C@H](CC(C)C)NC(=O)[C@H](C)NC(=O)[C@@H](NC(=O)[C@H](CCCCN)NC(=O)[C@H](C)NC(=O)[C@@H](NC(=O)[C@@H](N)CCCCN)[C@@H](C)CC)C(C)C)C(=O)NCC(=O)N[C@@H](C)C(=O)N[C@H](C(=O)N[C@@H](CC(C)C)C(=O)N[C@@H](CCCCN)C(=O)N[C@H](C(=O)N[C@@H](CC(C)C)C(=O)N[C@H](C(=O)N[C@H](C(=O)NCC(=O)N[C@@H](CC(C)C)C(N)=O)[C@@H](C)O)[C@@H](C)O)C(C)C)C(C)C [compound 105] | 25 µg/mL (≈ 11 µM) | >50 µg/mL | >50 µg/mL | 
KAKLF-NH2 [compound 130] | INACT | INACT | INACT | INACT
CC(C)C[C@H](NC(=O)[C@H](CCCCN)NC(=O)[C@H](C)NC(=O)[C@H](CC(C)C)NC(=O)[C@H](CC(C)C)NC(=O)[C@H](CCCCN)NC(=O)[C@H](C)NC(=O)[C@@H](N)Cc1ccccc1)C(=O)N[C@@H](C)C(=O)N[C@@H](CCCCN)C(=O)N[C@@H](C)C(=O)N[C@@H](CCCCN)C(=O)N[C@@H](C)C(N)=O [compound 95] | >50 µg/mL | >50 µg/mL | >50 µg/mL | >50 µg/mL
CC(C)C[C@H](NC(=O)[C@H](CCCCN)NC(=O)[C@H](CCCCN)NC(=O)[C@H](Cc1c[nH]c2ccccc12)NC(=O)[C@@H](N)CCCCN)C(=O)N[C@@H](C)C(=O)N[C@@H](CCCCN)C(=O)N[C@@H](CCCCN)C(=O)N[C@@H](Cc1c[nH]c2ccccc12)C(=O)O [compound 162] | 50 µg/mL (≈ 41.1 µM) | >250 µg/mL | 100 µg/mL (≈ 82.3 µM) | >250 µg/mL
FAKLLAKLAKKFAL-NH2 [compound 120] | INACT | INACT | INACT | INACT
CC(C)C[C@H](NC(=O)[C@H](CCCCN)NC(=O)[C@H](CC(C)C)NC(=O)[C@H](C)NC(=O)[C@H](CCCCN)NC(=O)[C@H](C)NC(=O)[C@H](CC(C)C)NC(=O)[C@H](CC(C)C)NC(=O)[C@H](CCCCN)NC(=O)[C@H](CCCCN)NC(=O)[C@H](C)NC(=O)[C@@H](N)Cc1ccccc1)C(N)=O [compound 110] | 8 µg/mL (≈ 5.96 µM) | >50 µg/mL | >50 µg/mL | >50 µg/mL
KWKLAKKALALL-NH2 [compound 142] | INACT | INACT | INACT | INACT
FAKLLAKLAKKSL-NH2 [compound 127] | INACT | INACT | INACT | INACT
CC(C)C[C@H](NC(=O)[C@H](CCCCN)NC(=O)[C@H](CC(C)C)NC(=O)[C@H](CC(C)C)NC(=O)[C@H](C)NC(=O)[C@@H](N)Cc1ccccc1)C(N)=O [compound 168] | 75 µg/mL (≈ 107 µM) | 100 µg/mL (≈ 142 µM) | 150 µg/mL (≈ 213 µM) | >250 µg/mL
CC(C)C[C@H](NC(=O)[C@H](CC(C)C)NC(=O)[C@H](CCCCN)NC(=O)[C@H](CCCCN)NC(=O)[C@H](C)NC(=O)[C@H](CC(C)C)NC(=O)[C@H](CCCCN)NC(=O)[C@H](C)NC(=O)[C@@H](N)Cc1ccccc1)C(N)=O [compound 60] | >50 µg/mL | >50 µg/mL | >50 µg/mL | >50 µg/mL
CC(C)C[C@H](NC(=O)[C@H](CCCCN)NC(=O)[C@H](CCCCN)NC(=O)[C@H](Cc1c[nH]c2ccccc12)NC(=O)[C@@H](N)CCCCN)C(=O)N[C@@H](C)C(=O)N[C@@H](CCCCN)C(=O)N[C@@H](CCCCN)C(=O)N[C@@H](Cc1c[nH]c2ccccc12)C(N)=O [compound 161] | 150 µg/mL (≈ 124 µM) | >250 µg/mL | 25 µg/mL (≈ 20.6 µM) | >250 µg/mL
CC(C)C[C@H](NC(=O)[C@H](CCCCN)NC(=O)[C@H](C)NC(=O)[C@H](CC(C)C)NC(=O)[C@H](CC(C)C)NC(=O)[C@H](CCCCN)NC(=O)[C@H](C)NC(=O)[C@@H](N)Cc1ccccc1)C(=O)N[C@@H](C)C(=O)N[C@@H](CCCCN)C(=O)N[C@@H](CCCCN)C(=O)N[C@@H](C)C(=O)N[C@@H](C)C(N)=O [compound 93] | >50 µg/mL | >50 µg/mL | >50 µg/mL | >50 µg/mL
CC(C)C[C@H](NC(=O)[C@H](C)NC(=O)[C@H](CCCCN)NC(=O)[C@H](C)NC(=O)[C@H](CC(C)C)NC(=O)[C@H](CCCCN)NC(=O)[C@H](CCCCN)NC(=O)[C@H](C)NC(=O)[C@H](CC(C)C)NC(=O)[C@H](CCCCN)NC(=O)[C@H](C)NC(=O)[C@H](CC(C)C)NC(=O)[C@H](CCCCN)NC(=O)[C@H](CCCCN)NC(=O)[C@H](C)NC(=O)[C@@H](N)Cc1ccccc1)C(N)=O [compound 109] |  |  | >50 µg/mL | 80 µg/mL (≈ 45.9 µM)
CC[C@H](C)[C@H](NC(=O)[C@H](CC(N)=O)NC(=O)[C@H](CCCNC(=N)N)NC(=O)CNC(=O)[C@H](CCSC)NC(=O)[C@H](CCCCN)NC(=O)[C@H](CCC(=O)O)NC(=O)[C@@H](NC(=O)[C@H](CCCCN)NC(=O)[C@H](CC(C)C)NC(=O)[C@H](Cc1ccccc1)NC(=O)[C@@H](NC(=O)[C@H](CCCCN)NC(=O)[C@H](CCC(=O)O)NC(=O)[C@H](CCCCN)NC(=O)[C@@H]1CCCN1C(=O)[C@@H](N)CCSC)C(C)C)[C@@H](C)CC)C(=O)N[C@@H](CCCNC(=N)N)C(=O)N[C@@H](CC(N)=O)C(N)=O [compound 107] |  | >50 µg/mL | >50 µg/mL | >50 µg/mL
CC(C)C[C@H](NC(=O)[C@H](C)NC(=O)[C@H](CC(C)C)NC(=O)[C@H](CCCCN)NC(=O)[C@H](C)NC(=O)[C@H](CC(C)C)NC(=O)[C@H](CCCCN)NC(=O)[C@H](CCCCN)NC(=O)[C@H](CC(C)C)NC(=O)[C@H](CCCCN)NC(=O)[C@H](CCCCN)NC(=O)[C@H](C)NC(=O)[C@H](CC(C)C)NC(=O)[C@H](CCCCN)NC(=O)[C@H](CCCCN)NC(=O)[C@H](C)NC(=O)[C@@H](N)Cc1ccccc1)C(=O)N[C@@H](C)C(=O)N[C@@H](CCCCN)C(N)=O [compound 41] | 40 µg/mL (≈ 19 µM) | 40 µg/mL (≈ 19 µM) |  | 40 µg/mL (≈ 19 µM)
